In patent US20040259176A1, “Structural basis for the guanine nucleotide-binding activity of tissue transglutaminase and its regulation of transamidation activity” (priority 2003, published 2004):

Tests used:
Format in all cases: cell-based, human
MDAMB231 cells [1] = test: Nuclear condensation or blebbing assay (doxorubicin-induced apoptosis); settings: FIG. 11C
Experimental: (§1) FIGS. 1A-D illustrate that the protective effect of EGF from doxorubicin-induced apoptosis is blocked by MDC in SKBR3 cells. In FIG. 11A, nearly confluent cultures of SKBR3 and MDAMB231 cells were placed in low serum medium. The following day, the cells were exposed to low serum medium +/−0.25 μM doxorubicin (Dox) for the times indicated and subsequently lysed. The presence of the activated form of caspase 3 (cleaved caspase 3) and actin (actin) in the cell extracts was assessed by Western blot analysis. In FIG. 11B, SKBR3 and MDAMB231 cells were maintained in low serum medium (0) or treated with 10 μM MDC (MDC) for 1.5 days. During this incubation, the SKBR3 cell cultures were also stimulated with +/−100 ng/ml EGF or +/−5 μM RA. All cell cultures were then treated with +/−0.25 μM doxorubicin (Dox) for about 1 day and the cells were scored for programmed cell death as described in Example 13. The assay was performed three times and the average percentage of cell death was plotted (FIG. 11C).
(§2) NIH3T3 cells were grown in Dulbecco's modified Eagle's medium containing 10% calf serum and 100 units/ml penicillin. SKBR3 and MDAMB231 cells were grown in RPMI 1640 medium containing 10% fetal bovine serum and 100 units/ml penicillin. The cell lines were maintained in a humidified atmosphere with 5% CO2 at 37° C. For the various treatments described, the cells were grown to near confluence in medium containing 10% serum, and then medium containing 1% serum or no serum with 5 μM RA, and/or 100 ng/ml EGF, +/−7 μM LY294002, and +/−0.2 μM doxorubicin were added for the appropriate amount of time. Cells were rinsed with phosphate-buffered saline (PBS) and then lysed with cell lysis buffer (10 mM Na2HPO4, 150 mM NaCl, 1% Triton X-100, 0.5% sodium deoxycholate, 0.1% SDS, 0.004% NaF, 1 mM NaVO4, 25 mM β-glycerophosphoric acid, 100 μg/ml phenylmethanesulfonyl fluoride, and 1 μg/ml each aprotinin and leupeptin, pH 7.35). The lysates were clarified by centrifugation at 12,000×g for 10 minutes at 4° C. Protein concentrations were determined using the Bio-Rad DC protein assay.
(§3) Cells were seeded in 6-well dishes and grown in complete medium for 2 days. The cells were then incubated in medium containing 1% serum +/−5 μM RA, +/−100 ng/ml EGF, and +/−10 μM MDC for 2 days. The cultures were then incubated with fresh medium containing RA, EGF, and MDC and +/−0.2 μM doxorubicin for an additional 1.5 days and were fixed and stained with 4,6-diamidino-2-phenylindole (2 μg/ml) for viewing by fluorescence microscopy. Apoptotic cells were identified by condensed nuclei and/or blebbing.

SKBR3 cells [2] = test: as above
Experimental: as §1, §2, §3

MDAMB231 cells [3] = test: Western blot for cleaved (activated) caspase 3; settings: MDAMB231 cells exposed to doxorubicin; FIG. 11A
Experimental: as §1
(§4) NIH3T3 cells were grown in Dulbecco's modified Eagle's medium containing 10% calf serum and 100 units/ml penicillin. SKBR3 and MDAMB231 cells were grown in RPMI 1640 medium containing 10% fetal bovine serum and 100 units/ml penicillin. The cell lines were maintained in a humidified atmosphere with 5% CO2 at 37° C. […] Protein concentrations were determined using the Bio-Rad DC protein assay. […]

SKBR3 cells [4] = test: Western blot for cleaved (activated) caspase 3; settings: 24 hours of incubation with doxorubicin, FIG. 11A
Experimental: as §1, §4

## CN(C)c1cccc2c(S(=O)(=O)NCCCCCN)cccc12 [MDC, monodansylcadaverine]
MDAMB231 cells [1]; MDAMB231 cells, 10 μM MDC plus doxorubicin
  susceptibility to doxorubicin-induced apoptosis compared to doxorubicin treatment alone: slightly more than twice as susceptible
SKBR3 cells [2]; SKBR3 cells incubated with MDC (10 μM), EGF and doxorubicin
  effect on the pro-survival effect of EGF from doxorubicin-induced apoptosis: nearly completely eliminated the pro-survival effect of EGF

## COc1cccc2c1C(=O)c1c(O)c3c(c(O)c1C2=O)C[C@@](O)(C(=O)CO)C[C@@H]3O[C@H]1C[C@H](N)[C@H](O)[C@H](C)O1 [doxorubicin]
MDAMB231 cells [1]; MDAMB231 cells exposed to doxorubicin (0.25 μM)
  apoptotic rate: 25%
SKBR3 cells [2]; SKBR3 cells exposed to doxorubicin (0.25 μM, about 1 day), low serum, FIG. 11B
  cells displaying nuclear condensation or blebbing: ~80%
MDAMB231 cells [3]
  cleaved form of caspase 3: failed to induce the cleaved form of caspase 3 to the same extent as in SKBR3 cells
SKBR3 cells [4]
  cleaved or activated caspase 3: easily detected
